How the values were obtained:
[1] = system: ECHCG: barnyardgrass (Echinochloa crus-galli); test: Post-Emergent Test I herbicidal activity; assay type: in vivo; conditions: post-emergence, 336 h, Table 3, 140 g ai/ha, read-out: Visual Growth Reduction (%)-14 Days after Application ECHCG
Outline: (§1)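 Greenhouse plants at first-second true leaf stage sprayed post-emergence by track sprayer at 187 L/ha with compound in acetone/DMSO/water/isopropanol carrier with crop oil concentrate and Triton X-155, top rate plus ½× to 1/16× serial rates. Injury scored visually at 14 d, 0-100% versus untreated plants; GR20, GR50, GR80 from probit analysis.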

[2] = system: ABUTH: velvetleaf (Abutilon theophrasti); test: Post-Emergent Test I herbicidal activity; assay type: in vivo; conditions: Abutilon theophrasti, post-emergence, 336 h, Table 3, 140 g ai/ha, read-out: Visual Growth Reduction (%)-14 Days after Application ABUTH
Outline: (§2)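 Visual injury ratings (0 = none, 100 = complete kill) taken 14 d after treatment underlie these values, with GR20, GR50 and GR80 obtained by probit analysis. Plants were treated post-emergence at the first or second true-leaf stage by overhead spray at 187 L/ha.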

[3] = system: CYPES: yellow nutsedge (Cyperus esculentus); test: Post-Emergent Test I herbicidal activity; assay type: in vivo; conditions: post-emergence, 336 h, Table 3, 140 g ai/ha, read-out: Visual Growth Reduction (%)-14 Days after Application CYPES
Outline: as §2

[4] = system: CHEAL: lambsquarters (Chenopodium album); test: Post-Emergent Test I herbicidal activity; assay type: in vivo; conditions: Chenopodium album, post-emergence, 336 h, Table 3, 140 g ai/ha, read-out: Visual Growth Reduction (%)-14 Days after Application CHEAL
Outline: as §2

[5] = system: EPHHL: wild poinsettia (Euphorbia heterophylla); test: Post-Emergent Test I herbicidal activity; assay type: in vivo; conditions: post-emergence, 336 h, Table 3, 140 g ai/ha, read-out: Visual Growth Reduction (%)-14 Days after Application EPHHL
Outline: as §2

[6] = system: ORYSA: rice (Oryza sativa); test: Post-Emergent Test I herbicidal activity; assay type: in vivo; conditions: post-emergence, 336 h, Table 3, 140 g ai/ha, read-out: Visual Growth Reduction (%)-14 Days after Application ORYSA
Outline: as §1

ZEAMX: corn (Zea mays) = test: Post-Emergent Test I herbicidal activity; assay type: in vivo; conditions: Zea mays, post-emergence, 336 h, Table 3, 140 g ai/ha, read-out: Visual Growth Reduction (%)-14 Days after Application ZEAMX
Outline: as §2

melting point [°C] | SMILES | pest or weed control at 140 g/ha [1] [%] | pest or weed control at 140 g/ha [2] [%] | pest or weed control at 140 g/ha [3] [%] | pest or weed control at 140 g/ha [4] [%] | pest or weed control at 140 g/ha [5] [%] | pest or weed control at 140 g/ha [6] [%] | pest or weed control at 140 g/ha (ZEAMX: corn (Zea mays)) [%]
113 to 117 | COC(=O)c1nc(-c2ccc(Cl)c(OC)c2F)c(F)c(N)c1SC [Compound 94, Methyl 4-amino-6-(4-chloro-2-fluoro-3-methoxyphenyl)-5-fluoro-3-(methylthio)picolinate] | 0 | 60 | 0 | 85 | 65 | 0 | 0
168 to 170 | CSc1c(C(=O)O)nc(-c2ccc(Cl)c(F)c2)c(F)c1N [Compound 72] | 0 | 80 | 90 | 100 | 100 | 30 | 60

— patent publication US9518018B2, “3-alkoxy, thioalkyl and amino-4-amino-6-(substituted)picolinates and their use as herbicides” (Dow AgroSciences LLC, priority 2011, dated 2016)
